The source made the active and inactive calls.
Experiments:
[1] = cytotoxicity in HEK-293T cells, dose response, cytotoxicity control for BCR NF-kB inhibitor project, luminescence, B-cell screen hits (AID 489021); assay type: functional, cell-based;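 further: HEK-293T cells carrying an NF-kB luciferase reporter; cells exposed to compound for about 14 hours before viability readout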
[2] = P. falciparum late gametocyte killing, dose response, luminescence (AID 1117278); assay type: functional, cell-based;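 further: gametocytes exposed to compound for 24 hours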
[3] = Jurkat T cell cytotoxicity, dose response, cytotoxicity control for P. falciparum gametocyte viability project, luminescence (AID 1117277); assay type: functional, cell-based;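 further: potency reflects loss of cellular ATP meaning fewer viable cells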
[4] = molecular target: Heat shock protein HSP 90-alpha (Homo sapiens, UniProt P07900); assay: Luminescence-based dose response biochemical high throughput screening assay for inhibitors of the Heat Shock Protein 90 (HSP90). [Related pubchem assays: 1831 (Summary AID.), 1846 (Confirmation screen.), 1789 (Primary screen.)]
[5] = growth suppression of PTEN-null colon cells, dose response, cell-based, HCT116 PTEN knockout (AID 1047); assay type: functional;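 further: HCT116 colon tumor cells with PTEN knocked out; cells exposed to compound for 60 hours before readout; potency for loss of cell viability measured by luminescence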
[6] = growth suppression of beta-catenin-knockout colon cells, dose response, cell-based, HCT116, human colon tumor (AID 1045); assay type: functional;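 further: HCT116 colon tumor cells with beta catenin knocked out; cells exposed to compound for 60 hours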
[7] = inhibitors of firefly luciferase expression or activity, dose response, H4 neuroglioma cells, luminescence (AID 1990); assay type: functional, cell-based
[8] = molecular target: T1, Corticotropin-releasing factor receptor 2/Corticotropin-releasing factor-binding protein (Homo sapiens, UniProt P24387+Q13324); assay: activators of CRF receptor 2 with binding protein – uHTS hits, confirmation (AID 602473); assay type: functional; details: read-out: EC50_Mean
T1 sequence (Q13324 whole entry): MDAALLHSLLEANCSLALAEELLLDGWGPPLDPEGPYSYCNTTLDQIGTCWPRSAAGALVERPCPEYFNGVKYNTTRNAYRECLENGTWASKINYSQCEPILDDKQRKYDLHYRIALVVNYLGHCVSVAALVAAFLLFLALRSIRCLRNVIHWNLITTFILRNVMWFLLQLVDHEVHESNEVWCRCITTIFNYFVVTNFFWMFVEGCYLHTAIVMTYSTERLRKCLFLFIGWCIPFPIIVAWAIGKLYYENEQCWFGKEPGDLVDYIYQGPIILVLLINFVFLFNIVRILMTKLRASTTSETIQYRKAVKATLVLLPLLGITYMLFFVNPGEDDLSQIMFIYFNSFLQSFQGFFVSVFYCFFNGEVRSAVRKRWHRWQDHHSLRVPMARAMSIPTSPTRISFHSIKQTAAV
T1 sequence (P24387 whole entry): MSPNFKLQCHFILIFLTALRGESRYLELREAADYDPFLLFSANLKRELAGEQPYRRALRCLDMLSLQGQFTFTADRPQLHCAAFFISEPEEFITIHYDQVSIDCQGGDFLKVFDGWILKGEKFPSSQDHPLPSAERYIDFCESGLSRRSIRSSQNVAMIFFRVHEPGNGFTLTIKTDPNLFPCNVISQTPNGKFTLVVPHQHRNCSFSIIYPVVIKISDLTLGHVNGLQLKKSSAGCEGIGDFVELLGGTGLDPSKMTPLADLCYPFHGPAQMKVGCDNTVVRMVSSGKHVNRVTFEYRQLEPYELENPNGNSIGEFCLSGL

[9] = Luminescence Cell-Based Dose Response HTS to Identify Inhibitors of 5'UTR Stem-Loop Driven Prion Protein mRNA Translation in H4 Neuroglioblastoma Cells. [Related pubchem assays: 1827 (Project Summary), 1813 (Primary HTS)]; assay type: functional
[10] = inhibitors of SNCA 5'UTR-driven reporter translation, confirmation, H4 neuroglioma cells, luminescence (AID 1988); assay type: functional, cell-based
HeLa = assay: HeLa cell cytotoxicity, dose response, cytotoxicity control for MITF activator project, CellTiter-Glo luminescence, cherry-pick samples (AID 540259); assay type: functional, cell-based; details: Homo sapiens
[11] = ADAM10 protease inhibitors, dose response, selectivity assay for ADAM17 exosite inhibitor project, biochemical, FRET peptide substrate, recombinant human ADAM10 (AID 743259);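 further: ADAM10 enzyme cleaving a FRET peptide substrate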
[12] = molecular target: Disintegrin and metalloproteinase domain-containing protein 17 (Homo sapiens, UniProt P78536); assay: exosite inhibitors of ADAM17, dose response, biochemical (AID 743260)
Sequence of Disintegrin and metalloproteinase domain-containing protein 17 (P78536 whole entry, the tested form may be a part): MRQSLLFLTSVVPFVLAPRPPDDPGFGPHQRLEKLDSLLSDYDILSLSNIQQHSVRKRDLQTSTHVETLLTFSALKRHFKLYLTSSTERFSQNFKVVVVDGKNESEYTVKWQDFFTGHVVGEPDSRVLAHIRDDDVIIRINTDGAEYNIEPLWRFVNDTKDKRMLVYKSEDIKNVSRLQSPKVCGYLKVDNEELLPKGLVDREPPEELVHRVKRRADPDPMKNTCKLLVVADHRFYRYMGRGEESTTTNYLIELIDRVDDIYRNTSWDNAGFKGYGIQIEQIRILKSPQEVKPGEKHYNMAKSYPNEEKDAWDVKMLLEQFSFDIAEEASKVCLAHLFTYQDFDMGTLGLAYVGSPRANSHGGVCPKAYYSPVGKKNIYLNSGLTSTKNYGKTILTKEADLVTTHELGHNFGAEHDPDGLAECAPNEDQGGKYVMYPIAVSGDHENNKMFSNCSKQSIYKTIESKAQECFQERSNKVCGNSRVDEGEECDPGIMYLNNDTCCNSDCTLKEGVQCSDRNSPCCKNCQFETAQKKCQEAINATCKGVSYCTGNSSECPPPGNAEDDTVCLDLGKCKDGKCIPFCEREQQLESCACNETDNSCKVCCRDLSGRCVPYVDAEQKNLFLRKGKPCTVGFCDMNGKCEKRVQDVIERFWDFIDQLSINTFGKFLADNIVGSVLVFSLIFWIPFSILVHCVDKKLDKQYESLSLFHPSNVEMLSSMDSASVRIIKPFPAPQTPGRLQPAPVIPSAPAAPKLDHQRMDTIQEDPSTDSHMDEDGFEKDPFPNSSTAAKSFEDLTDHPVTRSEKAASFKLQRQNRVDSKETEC

INS1 = assay: beta cell apoptosis inhibitors, cytokine rescue, dose response, luminescence, retest (AID 449756); assay type: functional, cell-based; details: Rattus norvegicus;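 further: cell death triggered by IL-1 beta plus TNF-alpha plus IFN-gamma mixture; protective hits raise ATP signal compared with cytokine alone wells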
Caspase-6 = molecular target: T2, Caspase-6 (Homo sapiens, UniProt P55212); assay: human caspase-6 inhibitors, dose response, biochemical, VEID-R110 fluorescence, cherry-pick (AID 720632)
T2 sequence (P55212 whole entry): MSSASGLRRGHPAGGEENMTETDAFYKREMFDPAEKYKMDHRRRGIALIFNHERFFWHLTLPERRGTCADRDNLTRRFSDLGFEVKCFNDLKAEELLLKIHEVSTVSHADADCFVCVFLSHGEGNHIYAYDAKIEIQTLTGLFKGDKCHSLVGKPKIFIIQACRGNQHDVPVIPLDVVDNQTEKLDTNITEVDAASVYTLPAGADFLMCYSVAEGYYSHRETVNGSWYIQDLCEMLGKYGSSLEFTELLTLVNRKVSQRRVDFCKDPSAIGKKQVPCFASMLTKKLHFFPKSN

H9c2 = assay: cells; assay type: functional, cell-based; details: Rattus norvegicus, H9c2, Myocardium;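 further: confirmatory concentration-response retest of ultra-high-throughput screening hits for modulation of myocardial damage; cell death induced by hydrogen peroxide oxidative stress; compound pretreatment for 60 min then peroxide exposure for 2 h; potency is for protecting the cells against peroxide damage rather than for killing them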
[13] = inhibitors of PGC1a acetylation in cells, dose response, cell-based, cherry-picked samples (AID 720514); assay type: functional;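 further: potency may reflect raised or lowered acetylation signal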
[14] = THP-1 cell cytotoxicity, dose response, cytotoxicity control for Vif-APOBEC3G degradation inhibitor project, THP-1 cells (AID 1117359); assay type: functional; details: Human immunodeficiency virus 1, THP-1
[15] = inhibitors of Vif binding to APOBEC3G peptide, primary screen, biochemical, TR-FRET, GST-Vif 1-94, biotin-A3G peptide, dose response retest (AID 1117319); assay type: functional;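 further: TR-FRET signal of purified GST-Vif binding a biotinylated A3G peptide; inhibitors lower the FRET signal by blocking Vif and A3G binding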
BJ [16] = assay: cytotoxicity toward BJ-TERT fibroblasts, dose response, cell-based, RAS-independent, luminescence (AID 1933); assay type: functional; details: Homo sapiens
[17] = cytotoxicity toward DRD oncogenic fibroblasts, dose response, cell-based, non-viral oncogenic, luminescence (AID 1934); assay type: functional; details: Homo sapiens
BJ [18] = assay: cells; assay type: functional, cell-based; details: Homo sapiens
BJ [19] = assay: cytotoxicity toward BJ-TERT-LT-ST fibroblasts, dose response, cell-based, RAS-independent, luminescence (AID 1935); assay type: functional; details: Homo sapiens;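 further: BJ fibroblasts immortalized with TERT plus LT and ST oncogenes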
[20] = inhibitors of clade B AD8 Env fusion, dose response, cell-based, cherry-pick (AID 652062); assay type: functional;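 further: luciferase signal from cell-cell fusion driven by HIV-1 clade B AD8 Env; potency is for inhibitors of fusion seen as a drop in luminescence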
[21] = inhibitors of HIV Env-driven cell fusion, dose response, cherry-pick (AID 652057); assay type: functional, cell-based
[22] = ZM109 Env clade C HIV-1 fusion inhibitors, dose response, HeLa effector, CEM target cells, luciferase, cherry-pick (AID 652058); assay type: functional, cell-based
[23] = Luminescence Cell-Based Dose Retest to Confirm Inhibitors of Cancer Stem Cells. [Related pubchem assays (depositor defined):AID2717, AID2721]; assay type: functional; details: Homo sapiens

CCCS(=O)(=O)Nc1cccc(-c2ccc3nnc(C)n3n2)c1
IC50 [1]: > 80 µM (inactive)

Cc1cc(C)n(-c2ccc(C(=O)NCc3cccs3)cc2)n1
IC50 [2]: > 109 µM (inactive)
IC50 [3]: > 83.3 µM (inactive)

CCC(C)c1ccc(OCc2ccc(C(=O)OC)o2)cc1 (stereo not given)
IC50 [4]: 2.29 µM (active)

CCc1ccc(-c2nc(CN3CCC(C(=O)NCCN(CC)c4ccccc4)CC3)c(C)o2)cc1
EC50 [5]: 7.82 µM (active)
EC50 [6]: 6.8 µM (active)

Cc1ccc(-c2csc3ncn(CC(=O)N4CCOCC4)c(=O)c23)cc1
IC50 [2]: > 109 µM (inactive)
IC50 [3]: > 83.3 µM (inactive)

CC1=NN(c2ccccc2)C(=O)/C1=C\N(O)c1ccccc1
IC50 [4]: 2.78 µM (active)

Cc1cccc(C)c1NC1=NC(=S)N(c2ccc(C(=O)O)cc2)C12CCCCC2
IC50 [2]: > 109 µM (inactive)
IC50 [3]: > 83.3 µM (inactive)

C[C@H]1CC[C@@H]2[C@@H](C)[C@H]3[C@H](C[C@H]4[C@@H]5CC=C6C[C@@H](O[C@@H]7O[C@H](CO)[C@H](O)[C@H](O[C@@H]8O[C@H](CO)[C@@H](O)[C@H](O)[C@H]8O)[C@H]7O[C@@H]7O[C@@H](C)[C@H](O)[C@@H](O)[C@H]7O)CC[C@]6(C)[C@H]5CC[C@]34C)N2C1
EC50 [7]: 13.5 µM (active)
EC50 [5]: 25.2 µM (active)
EC50 [8]: 9.48 µM (active)
EC50 [9]: > 120 µM (not active)
EC50 [6]: 22.1 µM (active)
EC50 [10]: > 120 µM (not active)

Cc1csc(NC(=O)CCc2c(C)nc3cc(-c4ccc(Cl)cc4)nn3c2C)n1
IC50 [1]: > 80 µM (inactive)

c1ccc(-c2cnnc(N3CCCCC3)n2)cc1
AC50 (HeLa): 191 µM (active)

Nc1cc(OC(=O)c2c(F)cccc2Cl)nn1S(=O)(=O)c1ccccc1
IC50 [11]: > 69.5 µM (inactive)
IC50 [12]: > 69.5 µM (inactive)

CC(=O)CSc1ccc(-c2nc3ccccc3[nH]2)cn1
AC50 (INS1): 5.24 µM (active)
IC50 [4]: 8.09 µM (active)

CNS(=O)(=O)c1cccc(C(=O)OCC(=O)N2c3ccccc3NC(=O)C2(C)C)c1
AC50 (Caspase-6): 3 µM (active)

COc1ccc(S(=O)(=O)NCC(c2ccco2)N2CCc3ccccc32)cc1 (stereo not given)
IC50 [11]: 38.4 µM (inactive)
IC50 [12]: > 69.5 µM (inactive)

O=S(=O)(Nc1ccncc1)c1ccccc1
IC50 [2]: > 109 µM (inactive)
IC50 [3]: > 83.3 µM (inactive)

Cc1cccc2c1-c1sc(C(=O)N3CCCCC3)cc1CO2
AC50 (HeLa): > 350 µM (inactive)

Cc1c(CCC(=O)NCCCn2ccnc2)c(=O)oc2c(C)c3oc4c(c3cc12)CCCC4
EC50 [7]: 13.7 µM (active)
IC50 [1]: 63.6 µM (inactive)
EC50 [9]: 17.8 µM (active)
EC50 [10]: 14.6 µM (active)

Brc1ccc2nc(N3CCN(c4ccccc4)CC3)sc2c1
IC50 [2]: > 109 µM (inactive)
IC50 [3]: > 83.2 µM (inactive)

CC(=O)Nc1ccc(Nc2nc(-c3sc(NC(C)=O)nc3C)cs2)cc1
IC50 (H9c2): > 79 µM (inactive)
IC50 [1]: 20.6 µM (inactive)

Cc1nc(Nc2ccc(S(N)(=O)=O)cc2)sc1C(=O)Nc1ccccc1
AC50 [13]: 3.05 µM (active)
CC50 [14]: > 40 µM (active)

CC1(O)N(Cc2ccccc2)C(=O)OC12CCCCC2 (stereo not given)
IC50 [11]: > 69.5 µM (inactive)
IC50 [12]: > 69.5 µM (inactive)

O=C(O)c1ccc(COc2c(F)c(F)c(F)c(F)c2F)o1
IC50 [15]: > 100 µM (active)

Clc1cccc(-c2cc3nc4c(c(N5CCNCC5)n3n2)CCCC4)c1
EC50 [5]: 8.22 µM (active)
EC50 [6]: 7.97 µM (active)

COc1ccc(/C=C/c2noc(-c3ccccc3OC(C)=O)n2)cc1
IC50 [4]: 3.29 µM (active)

Cc1cc2c(C)cc(O)nc2cc1NC(=O)CCl
EC50 (BJ [16]): 17.7 µM (active)
EC50 [17]: 42.2 µM (active)
EC50 (BJ [18]): > 150 µM (not active)
EC50 (BJ [19]): > 150 µM (not active)

COc1ccc(CC(=O)OCC(=O)NCc2ccco2)cc1OC
CC50 [14]: > 40 µM (active)
IC50 [15]: > 100 µM (active)

O=C(CCN1CCOCC1)NCC(=O)Nc1ccc(Br)cc1C(=O)c1ccccc1
IC50 [15]: > 100 µM (active)

CN(CCc1ccccc1)C(=O)c1ccc(NC(=O)Cc2ccc(NC(=O)C3CCN(C(=O)CCc4ccccc4)CC3)cc2)cc1
CC50 [14]: > 40 µM (active)

Cc1ccc2c(c1)[C@H]1[C@H](CO2)[C@H](c2ccccc2)[C@]2(C)C(=O)N(Cc3ccc(Cl)cc3)CC(=O)N12
IC50 [11]: > 69.5 µM (inactive)
IC50 [12]: > 69.5 µM (inactive)

COc1ccccc1NC(=O)N[C@@H]1C=C[C@H](CC(=O)N[C@H](C)c2ccccc2)O[C@H]1CO
AC50 [20]: 6.98 µM (active)
AC50 [21]: 8.31 µM (active)
AC50 [22]: 7.16 µM (active)

O=C(C[C@@H]1CC[C@H]2[C@@H](COC[C@@H](O)CN2Cc2ccc(Oc3ccccc3)cc2)O1)N1CCN(c2ccccc2)CC1
AC50 [20]: 4.07 µM (active)
AC50 [21]: 22.3 µM (active)
AC50 [22]: 20.4 µM (active)

Cc1ccc(S(=O)(=O)N(CC(=O)N/N=C/c2cccc3c2OCCO3)c2ccccc2F)cc1
IC50 [15]: > 100 µM (active)

O=C(Nc1cccc(-c2csc(-c3ccccc3)n2)c1)c1cccs1
IC50 [11]: > 69.5 µM (inactive)
AC50 [23]: 3.38 µM (active)
IC50 [12]: > 69.5 µM (inactive)

From ChEMBL document CHEMBL1201862, “PubChem BioAssay data set” (2004)
